The values below come from ChEMBL document CHEMBL1201862, “PubChem BioAssay data set” (2004).

Some test systems named below: COLO 205; OVCAR-5; M14; NCI-H522; IGROV-1; SW-620; CAKI-1; DLD-1; SR; SF-295; DU-145; MCF7; MDA-MB-435; BT-549; PC-3; Hs-578T; MDA-N; MDA-MB-231; T47D; NCI/ADR-RES.
Assay in all cases: inhibition of tumour cell growth, NCI panel, 48 h

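Assay format: 96-well plates, 48-hour exposure. GI50: concentration for 50% inhibition of growth.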 The source made the active and inactive calls. No stated cut-off is given here; in the data, active = GI50 up to about 1.1 µM and inactive = higher.

Turning to `C=C(Nc1ccc(OC)cc1OC)C(=O)Cc1cccc[n+]1[O-]`, the GI50 in the experiment on COLO 205, with OVCAR-5, in the experiment with M14, in the experiment on NCI-H522, with IGROV-1 and in the experiment with SW-620 was > 100 µM (inactive) in each case. Also, the GI50 in the experiment on CAKI-1, with DLD-1, in the experiment on SR and in the experiment on SF-295 was > 100 µM (inactive) throughout.
Regarding `CC(=O)c1cccc(NC(=O)C(=O)C(C(=O)c2ccccc2F)C2OC(=O)c3ccccc32)c1` (stereo not drawn), the GI50 in the experiment with COLO 205 was 18.6 µM (inactive); in the experiment with OVCAR-5, 64.3 µM (inactive); in the experiment on M14, 92.7 µM (inactive); in the experiment on NCI-H522, 19.4 µM (inactive); in the experiment with IGROV-1, 74.8 µM (inactive); in the experiment on SW-620, 99.5 µM (inactive). The GI50 in the experiment with CAKI-1 was 65.3 µM (inactive); in the experiment with DLD-1 it was 45.8 µM (inactive); in the experiment with SR, 9.2 µM (inactive); with SF-295 it was 42.6 µM (inactive).
Take `CN(/N=C/c1cccc2cccnc12)c1ccc([N+](=O)[O-])cc1[N+](=O)[O-]`: the GI50 in the experiment with DU-145 was 65.5 µM (inactive); in the experiment with MCF7, 40.8 µM (inactive); in the experiment on COLO 205 it was 86.3 µM (inactive); in the experiment with MDA-MB-435 it was > 100 µM (inactive); in the experiment on BT-549, 21.3 µM (inactive); with OVCAR-5 it was 70.1 µM (inactive). Moreover, the GI50 in the experiment with M14 is 54.7 µM (inactive); in the experiment on PC-3, 55 µM (inactive); in the experiment with NCI-H522 it was 16.4 µM (inactive); in the experiment on Hs-578T, 9.71 µM (inactive); in the experiment with MDA-N it was > 100 µM (inactive); with IGROV-1, 24.5 µM (inactive). For the same compound, the GI50 was 23.1 µM (inactive) with MDA-MB-231; 99.5 µM (inactive) in the experiment with SW-620; 24.4 µM (inactive) in the experiment with CAKI-1; 23.1 µM (inactive) in the experiment on T47D; 44.7 µM (inactive) in the experiment with DLD-1; 39.8 µM (inactive) in the experiment on NCI/ADR-RES. For the same compound, in the experiment with SF-295, the GI50 was 13 µM (inactive).
Regarding `C/C(=C/c1c(C)[nH]c(=O)[nH]c1=O)C(=O)O`, the GI50 in the experiment on MCF7 was > 1370 µM (inactive); in the experiment with COLO 205, > 1370 µM (inactive); in the experiment on OVCAR-5, > 1260 µM (inactive); in the experiment with NCI-H522, > 1370 µM (inactive); in the experiment on IGROV-1, > 1370 µM (inactive); with SW-620 it was > 1370 µM (inactive). Moreover, the GI50 in the experiment with CAKI-1, in the experiment on DLD-1, in the experiment with NCI/ADR-RES and in the experiment with SF-295 was > 1370 µM (inactive) each time.
On to `Cc1cccc(C)c1NC(=O)C(=O)C1C(=O)N(c2ccccc2)N=C1N` (stereo not drawn), for which the GI50 in the experiment on COLO 205, in the experiment with OVCAR-5, in the experiment with M14, in the experiment on NCI-H522, with IGROV-1 and in the experiment with SW-620 was > 100 µM (inactive) each time. Also, the GI50 with CAKI-1, with DLD-1, in the experiment on SR and in the experiment on SF-295 was > 100 µM (inactive) each time.
Take `C[C@@H]1O[C@]2(O)[C@@H]3CCCN3S(=O)(=O)CCN2C1=O`: the GI50 in the experiment with COLO 205, with OVCAR-5, in the experiment on M14, with NCI-H522, in the experiment with IGROV-1 and in the experiment with SW-620 was > 100 µM (inactive) throughout. The GI50 in the experiment with CAKI-1, with DLD-1, in the experiment on SR and with SF-295 was > 100 µM (inactive) each time.
For `COc1ccc(NC(=O)C(=O)NO)c(OC)c1`, the GI50 with COLO 205 is 21 µM (inactive); with OVCAR-5, 19.5 µM (inactive); in the experiment with M14, 16.3 µM (inactive); with NCI-H522 it was 5.92 µM (inactive); with IGROV-1, 15.4 µM (inactive); with SW-620, 18.7 µM (inactive). The GI50 in the experiment on CAKI-1 was 13.8 µM (inactive); in the experiment with DLD-1, 21.5 µM (inactive); in the experiment with SR, 0.239 µM (active); with SF-295, 14 µM (inactive).
Take `O=C1/C(=C/c2ccccc2)CCC/C1=C\c1ccccc1` [2,6-DIBENZYLIDENECYCLOHEXANONE]: the GI50 in the experiment with DU-145 is 6.97 µM (inactive); with MCF7 it was 1.74 µM (inactive); in the experiment on COLO 205, 17.9 µM (inactive); in the experiment on MDA-MB-435 it was 5.62 µM (inactive); in the experiment with BT-549, 5.81 µM (inactive); with OVCAR-5, 17.3 µM (inactive). For the same compound, the GI50 in the experiment on M14 is 6.44 µM (inactive); with PC-3, 5.89 µM (inactive); in the experiment on Hs-578T, 8.2 µM (inactive); in the experiment on MDA-N it was 2.79 µM (inactive); in the experiment with IGROV-1, 13 µM (inactive); with MDA-MB-231, 6.07 µM (inactive). Further, the GI50 in the experiment on SW-620 was 2.6 µM (inactive); in the experiment on CAKI-1 it was 23.4 µM (inactive); with T47D, 6.4 µM (inactive); in the experiment on DLD-1 it was 3.04 µM (inactive); with SR, 9.71 µM (inactive); in the experiment on NCI/ADR-RES, 8.77 µM (inactive). In addition, the GI50 in the experiment with SF-295 is 10.4 µM (inactive).
